What was measured:
[1] = system: K562 (chronic myelogenous leukaemia); assay: Effect on tumor cell lines, viable cell count by trypan blue exclusion (Latham et al.): K562; format: cell-based; details: K562 chronic myelogenous leukaemia cells, viable cell count 96 hours after treatment
Method: (§1) The effect of the compounds of the invention on tumor cells was determined by the assay described by Latham et al., Oncogene 12:827-837 (1996). Tumor cells DU145 (prostate cancer), K562 (chronic myelogenous leukaemia), BT20 (breast carcinoma), H157 (non small cell lung carcinoma), or DLD1 (colon carcinoma) were plated in 6-well dishes at a cell density of 1.0×10^5 cells per 35-mm^2 well. […] The total number of viable cells was determined 96 hours later by trypsinizing the wells and counting the number of viable cells, as determined by trypan blue exclusion, using a hemacytometer. Normal HFL cells were treated with the same compounds under the same conditions of concentration and time.

DU145 (prostate cancer) = assay: Effect on tumor cell lines, viable cell count by trypan blue exclusion (Latham et al.): DU145; format: cell-based; details: DU145 prostate cancer cells, viable cell count 96 hours after treatment
Method: as §1

| Structure (SMILES) | melting point [°C] | IC50 ([1]; Homo sapiens, K562, 96 h) [µM] | IC50 (DU145 (prostate cancer); Homo sapiens, DU-145, 96 h) [µM] | IC50 [1] [µM] | IC50 (DU145 (prostate cancer)) [µM] |
| --- | --- | --- | --- | --- | --- |
| COc1ccc(CS(=O)(=O)/C(C#N)=C/c2c(F)c(F)c(F)c(F)c2F)cc1 [Example 11] | 110 to 112 | 1 | 25 |  |  |
| COc1cccc(OC)c1/C=C(\C#N)S(=O)(=O)Cc1ccc(Br)cc1 [Example 18] | 156 to 158 | 10 | 25 |  |  |
| N#C/C(=C\c1c(F)c(F)c(F)c(F)c1F)S(=O)(=O)Cc1ccc(Br)cc1 [Example 19] | 146 to 148 | 10 | 50 |  |  |
| COc1cc(OC)c(/C=C(\C#N)S(=O)(=O)Cc2ccc(Br)cc2)c(OC)c1 [Example 20] | 158 to 160 | 10 | 75 |  |  |
| N#C/C(=C\c1c(F)c(F)c(F)c(F)c1F)S(=O)(=O)Cc1ccc(Cl)cc1 [Example 21] | 154 to 156 | 25 | 50 |  |  |
| COc1ccc(CS(=O)(=O)/C(C#N)=C/c2c(F)c(F)c(F)c(F)c2F)cc1[N+](=O)[O-] [Example 35] | 144 to 146 | 1 | 25 |  |  |
| COc1cc(OC)c(/C=C(\C#N)S(=O)(=O)Cc2ccc(OC)c(N)c2)c(OC)c1 [Example 36] | 198 to 200 | 5 | 25 |  |  |
| COc1ccc(CS(=O)(=O)/C(C#N)=C/c2c(F)c(F)c(F)c(F)c2F)cc1OS(=O)(=O)c1ccc(C)cc1 [Example 38, (E)-2-[(4-methoxy-3-(4-methylphenylsulfonyloxy)phenyl)methanesulfonyl]-3-(2,3,4,5,6-pentafluorophenyl)acrylonitrile] | 170 to 172 | 50 to 100 | > 100 |  |  |
| COc1cc(OC)c(/C=C(\C#N)S(=O)(=O)Cc2ccc(OC)c(F)c2)c(OC)c1 [Example 39] | 162 to 164 | 1 to 10 | 1 to 10 |  |  |
| COc1ccc(/C=C(\C#N)S(=O)(=O)Cc2ccc(Cl)cc2Cl)c(F)c1 [Example 65] | 140 to 155 | 50 to 100 | 50 to 100 |  |  |
| N#C/C(=C\c1ccc(-c2ccccc2)cc1)S(=O)(=O)Cc1ccc(Cl)cc1 [Example 67] |  |  |  | > 100 | > 100 |
| N#C/C(=C\c1ccccc1OCc1ccccc1)S(=O)(=O)Cc1ccc(Cl)cc1 [Example 70] | 129 to 137 | > 100 | > 100 |  |  |
| CSc1ccc(/C=C(\C#N)S(=O)(=O)Cc2ccc(Cl)cc2Cl)cc1 [Example 76] |  |  |  | 50 to 100 | 50 to 100 |
| CSc1ccc(/C=C(\C#N)S(=O)(=O)Cc2ccc(F)cc2)cc1 [Example 87] |  |  |  | 25 to 50 | 25 to 50 |
| Cc1ccsc1/C=C(\C#N)S(=O)(=O)Cc1ccc(Cl)cc1Cl [Example 102] |  |  |  | 50 to 100 | > 100 |
| Cc1ccsc1/C=C(\C#N)S(=O)(=O)Cc1ccc(Cl)cc1 [Example 120] |  |  |  | 25 to 50 | 50 to 100 |
| Cc1ccsc1/C=C(\C#N)S(=O)(=O)Cc1ccccc1 [Example 127] |  |  |  | > 100 | > 100 |
| N#C/C(=C\c1ccc(-c2ccccc2)cc1)S(=O)(=O)Cc1ccccc1 [Example 138] |  |  |  | > 100 | > 100 |
| COc1ccc(CS(=O)(=O)/C(C#N)=C/c2ccc(-c3ccccc3)cc2)cc1 [Example 140] |  |  |  | > 100 | > 100 |
| COc1ccc(CS(=O)(=O)/C(=C/c2c(OC)cc(OC)cc2OC)[N+](=O)[O-])cc1 [Example 188] |  | 2 | < 1 |  |  |
| COc1cc(OC)c(/C=C(\[N+](=O)[O-])S(=O)(=O)Cc2ccc(F)cc2)c(OC)c1 [Example 189] |  | 5 | 2.5 |  |  |
| N#C/C(=C\c1ccc(-c2ccccc2)cc1)S(=O)(=O)Nc1ccc(Br)cc1 [Example 220] |  |  |  | 10 to 25 | 50 to 100 |
| N#C/C(=C\c1ccc(-c2ccccc2)cc1)S(=O)(=O)Nc1ccc(F)cc1 [Example 239] |  |  |  | 10 to 25 | 50 to 100 |
| Cc1ccc(NS(=O)(=O)/C(C#N)=C/c2ccc(-c3ccccc3)cc2)c(C)c1 [Example 260] |  |  |  | 25 to 50 | 50 to 100 |
| CSc1ccc(/C=C(\C#N)S(=O)(=O)Nc2ccc(C)cc2C)cc1 [Example 276] |  |  |  | > 100 | > 100 |
| COc1ccc(NS(=O)(=O)/C(C#N)=C/c2ccc(-c3ccccc3)cc2)cc1 [Example 286] |  |  |  | 50 to 100 | 50 to 100 |
| COc1ccc(NS(=O)(=O)/C(C#N)=C/c2ccc(SC)cc2)cc1 [Example 293] |  |  |  | > 100 | > 100 |

Continued, in another order:

| melting point [°C] | IC50 ([1]; Homo sapiens, K562, 96 h) [µM] | IC50 (DU145 (prostate cancer); Homo sapiens, DU-145, 96 h) [µM] | Structure (SMILES) | IC50 [1] [µM] | IC50 (DU145 (prostate cancer)) [µM] |
| --- | --- | --- | --- | --- | --- |
| 202 to 204 | 10 | 75 | N#C/C(=C\c1ccc(C#N)cc1F)S(=O)(=O)Cc1ccc(Br)cc1 [Example 16] |  |  |
| 123 to 126 | 1 to 10 | 25 to 50 | Cc1ccc(C)c(/C=C(\C#N)S(=O)(=O)Cc2ccc(Cl)cc2)c1 [Example 40] |  |  |
| 124 to 126 | 50 to 100 | 50 to 100 | N#C/C(=C\c1ccc(F)cc1Cl)S(=O)(=O)Cc1ccc(Cl)cc1 [Example 41] |  |  |
| 140 to 145 | 50 to 100 | 50 to 100 | Cc1cc(/C=C(\C#N)S(=O)(=O)Cc2ccc(Cl)cc2)ccc1F [Example 42] |  |  |
| 155 to 165 | 50 to 100 | > 100 | COc1ccc(/C=C(\C#N)S(=O)(=O)Cc2ccc(Cl)cc2)cc1O [Example 44] |  |  |
| 168 to 180 | 50 to 100 | 50 to 100 | N#C/C(=C\c1ccc(Br)cc1)S(=O)(=O)Cc1ccc(Cl)cc1 [Example 45] |  |  |
| 120 to 128 | > 100 | > 100 | COc1ccc(/C=C(\C#N)S(=O)(=O)Cc2ccc(Cl)cc2)c(OC)c1OC [Example 46] |  |  |
| 145 to 150 | 50 to 100 | 50 to 100 | N#C/C(=C\c1ccc(F)cc1)S(=O)(=O)Cc1ccc(Cl)cc1 [Example 47] |  |  |
| 243 to 253 | 1 to 10 | 1 to 10 | N#C/C(=C\c1ccc([N+](=O)[O-])cc1F)S(=O)(=O)Cc1ccc(Cl)cc1 [Example 48] |  |  |
| 145 to 155 | 50 to 100 | > 100 | COc1ccc(/C=C(\C#N)S(=O)(=O)Cc2ccc(Cl)cc2)c(F)c1 [Example 49] |  |  |
| 143 to 152 | > 100 | > 100 | COc1ccc(/C=C(\C#N)S(=O)(=O)Cc2ccc(Cl)cc2)cc1 [Example 50] |  |  |
| 121 to 126 | 25 to 50 | 25 to 50 | N#C/C(=C\c1ccc(Cl)cc1Cl)S(=O)(=O)Cc1ccc(Cl)cc1 [Example 51] |  |  |
| 145 to 155 | 10 to 25 | 25 to 50 | N#C/C(=C\c1ccc(Cl)c(Cl)c1)S(=O)(=O)Cc1ccc(Cl)cc1 [Example 52] |  |  |
| 177 to 180 | 50 to 100 | 50 to 100 | COc1cc(OC)c(/C=C(\C#N)S(=O)(=O)Cc2ccc(Cl)cc2)c(OC)c1 [Example 53] |  |  |
| 155 to 169 | 50 to 100 | > 100 | CCOc1cc(/C=C(\C#N)S(=O)(=O)Cc2ccc(Cl)cc2)ccc1O [Example 54] |  |  |
| 143 to 148 | 10 to 25 | 10 to 25 | CCOc1ccc(/C=C(\C#N)S(=O)(=O)Cc2ccc(Cl)cc2)cc1OC [Example 55] |  |  |
| 155 to 165 | 25 to 50 | 50 to 100 | COc1cc(/C=C(\C#N)S(=O)(=O)Cc2ccc(Cl)cc2)cc(OC)c1 [Example 56] |  |  |
| 192 to 202 | 25 to 50 | 25 to 50 | CC(=O)Oc1ccc(/C=C(\C#N)S(=O)(=O)Cc2ccc(Cl)cc2)cc1 [Example 57] |  |  |
|  | 25 to 50 | 50 to 100 | CN(C)c1ccc(/C=C(\C#N)S(=O)(=O)Cc2ccc(Cl)cc2)cc1 [Example 58] |  |  |
| 195 to 205 | 50 to 100 | 50 to 100 | N#C/C(=C\c1ccc(O)c([N+](=O)[O-])c1)S(=O)(=O)Cc1ccc(Cl)cc1 [Example 59] |  |  |
| 250 to 255 | > 100 | > 100 | N#C/C(=C\c1ccc(O)cc1O)S(=O)(=O)Cc1ccc(Cl)cc1 [Example 60] |  |  |
| 145 to 168 | 25 to 50 | 50 to 100 | N#C/C(=C\c1ccc(Cl)cc1)S(=O)(=O)Cc1ccc(Cl)cc1 [Example 61] |  |  |
| 145 to 155 | 50 to 100 | > 100 | N#C/C(=C\c1ccc(Cl)c(Cl)c1Cl)S(=O)(=O)Cc1ccc(Cl)cc1 [Example 62] |  |  |
| 118 to 124 | > 100 | > 100 | Cc1ccc(/C=C(\C#N)S(=O)(=O)Cc2ccc(Cl)cc2Cl)s1 [Example 63] |  |  |
| 135 to 145 | 50 to 100 | 50 to 100 | CN(C)c1ccc(/C=C(\C#N)S(=O)(=O)Cc2ccc(F)cc2)cc1 [Example 64] |  |  |
| 191 to 202 | 50 to 100 | 50 to 100 | Cc1ccc(/C=C(\C#N)S(=O)(=O)Cc2ccc(Cl)cc2)cc1C [Example 66] |  |  |
| 200 to 205 | 10 to 25 | 25 to 50 | N#C/C(=C\c1c[nH]c2ccccc12)S(=O)(=O)Cc1ccc(Cl)cc1 [Example 68] |  |  |
| 142 to 157 | > 100 | > 100 | N#C/C(=C\c1ccccc1)S(=O)(=O)Cc1ccc(Cl)cc1 [Example 69] |  |  |

Source: US20090191193A1, “Aryl Vinyl Sulfides, Sulfones, Sulfoxides and Sulfonamides, Derivatives Thereof and Therapeutic Uses Thereof” (TEMPLE UNIVERSITY-OF THE COMMONWEALTH SYSTEM OF HIGHER …, priority 2006, published 2009)
